Experimental data taken from patent US20250281492A1, “NEW CRYSTALLINE FORMS OF SALT OF 7-CYCLOPENTYL-2-(5-PIPERAZIN-1-YL-PYRIDIN-2-YLAMINO)-7H-PYRROLO[2,3-D]PYRIMIDINE -6-CARBOXYLIC ACID DIMETHYLAMIDE” (priority 2019, published 2025).

What was measured:
Type in all cases: physicochemical
[1] = Hydrate formation: exposure at ambient temperature at various relative humidity in a desiccator
Text: Aliquots from ribociclib succinate Modification A were exposed in a desiccator with saturated solution of inorganic salt or drying agent to provide a range of various relative humidities.

[2] = Conversion to dihydrate Modification HB (water activity, suspension equilibration)
[3] = Long term stability studies, exposure to high relative humidity; conditions: 75% RH at 40 or 50° C., less protective packaging material
Thermogravimetry = experiment: Thermogravimetry
[4] = DVS (dynamic vapor sorption) sorption/desorption isotherms; conditions: for Desorption / Sorption: DVS, 25 degrees Celsius; for XRPD after DVS: after DVS cycle at 25 degrees Celsius; for hygroscopicity classification: from DVS data at 25° C.
Text: Anhydrous modifications A and E of ribociclib succinate were submitted to DVS analysis. The results are reported in FIGS. 14 and 15 and in Table 12.

[5] = heating rate 10 degrees Celsius per minute
[6] = relative humidity 10%, succinate
[7] = relative humidity 20%, succinate
[8] = relative humidity 30%, succinate
[9] = relative humidity 40%, succinate
[10] = relative humidity 50%, succinate
[11] = relative humidity 60%, succinate
[12] = relative humidity 70%, succinate
[13] = relative humidity 80%, succinate
[14] = relative humidity 90%, succinate
[15] = relative humidity 95%, succinate

loss on drying (Thermogravimetry; from 30 to 180° C.)	decomposition temperature (Thermogravimetry; [5])	Desorption ([4]; relative humidity 0%)	Sorption ([4]; relative humidity 0%)	Desorption [4, 6]	Sorption [4, 6]	Desorption ([4]; relative humidity 20%)	Sorption [4, 7]	Desorption ([4]; relative humidity 30%)	Sorption [4, 8]	Desorption ([4]; relative humidity 40%)	Sorption [4, 9]	Sorption [4, 10]	Sorption [4, 11]	Sorption [4, 12]	Sorption [4, 13]	Sorption [4, 14]	Sorption [4, 15]	XRPD after DVS [4]	hygroscopicity classification ([4]; succinate)	SMILES	other results
less than 0.05%	about 200 °C	0.0 wt %	0.0 wt %	0.1 wt %	0.1 wt %	0.1 wt %	0.1 wt %	0.1 wt %	0.2 wt %	0.1 wt %	0.2 wt %	0.2 wt %	0.2 wt %	0.3 wt %	0.3 wt %	0.5 wt %	0.7 wt %	No change	slightly hygroscopic	CN(C)C(=O)c1cc2cnc(Nc3ccc(N4CCNCC4)cn3)nc2n1C1CCCC1.O=C(O)CCC(=O)O [Modification A, 7-Cyclopentyl-2-(5-piperazin-1-yl-pyridin-2-ylamino)-7H-pyrrolo[2,3-d]pyrimidine-6-carboxylic acid dimethylamide succinate, reference compound]	loss on drying by thermogravimetry ([1]; after 10 days at 92% RH, ambient temperature): 3.9%; physical stability (XRPD) ([1]; exposed to 92% RH at ambient temperature for 1 day, peaks assigned to Modification HA): some additional peaks at about 4.7, 6.4, 12.0 and 13.0 degree 2θ can be detected; conversion (XRPD) ([1]; exposed to 92% RH at ambient temperature for 10 days): complete conversion; physical stability (XRPD) ([1]; exposed up to 80% RH at ambient temperature for 1 day): physically stable; loss on drying by thermogravimetry ([1]; starting material before exposure): lower than 0.05%; behaviour at high relative humidity ([1]; sufficient amount of time at relative humidity close or higher than 92%): starts to deliquesce; water activity for conversion into dihydrate Modification HB ([2]; conversion observed in bulk at 40° C./75% RH): higher than 70 % relative humidity (RH); physical stability (XRPD) [3]: physically unstable; maximum mass change compared to the dry state ([4]; exposed to 92% HR., 25° C.): about 0.7%; water uptake in comparison to the dry state (0% RH) ([4]; exposed to 95% RH in DVS cycle at 25° C.): about 0.7%
less than 0.05%	about 200 °C	0.0 wt %	0.0 wt %	0.0 wt %	0.0 wt %	0.1 wt %	0.0 wt %	0.1 wt %	0.1 wt %	0.1 wt %	0.1 wt %	0.1 wt %	0.1 wt %	0.1 wt %	0.1 wt %	0.1 wt %	0.1 wt %	No change	not hygroscopic	CN(C)C(=O)c1cc2cnc(Nc3ccc(N4CCNCC4)cn3)nc2n1C1CCCC1.O=C(O)CCC(=O)O [Modification E, 7-Cyclopentyl-2-(5-piperazin-1-yl-pyridin-2-ylamino)-7H-pyrrolo[2,3-d]pyrimidine-6-carboxylic acid dimethylamide succinate]	water activity (aH2O) at which Modification HB is obtained ([2]; suspension equilibration at 25° C.): ≥ 0.68; max water uptake (mass change) ([4]; DVS cycle at 25° C.): 0.1%
																				CN(C)C(=O)c1cc2cnc(Nc3ccc(N4CCNCC4)cn3)nc2n1C1CCCC1 [Modification F]	loss on drying (Thermogravimetry; from 30 to 140° C.): less than 0.0%
	about 200 °C	0.0 wt %	0.0 wt %			1.7 wt %		1.9 wt %		2.0 wt %								No change		CN(C)C(=O)c1cc2cnc(Nc3ccc(N4CCNCC4)cn3)nc2n1C1CCCC1.O.O.O=C(O)CCC(=O)O [Modification HB]	mass loss on loss of water (Thermogravimetry; at about 120° C.): about 5.8%; temperature of loss of water (Thermogravimetry; [5]): about 120 °C; Desorption ([4]; relative humidity 10%): 1.2 wt %; Sorption ([4]; relative humidity 10%): 0.8 wt %; Sorption ([4]; relative humidity 20%): 1.3 wt %; Sorption ([4]; relative humidity 30%): 1.7 wt %; Sorption ([4]; relative humidity 40%): 1.9 wt %; Sorption ([4]; relative humidity 50%): 2.1 wt %; Sorption ([4]; relative humidity 60%): 2.2 wt %; Sorption ([4]; relative humidity 70%): 2.3 wt %; Sorption ([4]; relative humidity 80%): 2.4 wt %; Sorption ([4]; relative humidity 90%): 2.5 wt %; Sorption ([4]; relative humidity 95%): 2.5 wt %
